Data taken from US9476064B2, “Neuro-progenitor produced from an SCNT-derived ES cell” (H. Bion Co., Ltd., priority 2003, dated 2016).

System: nucleus-transferred oocytes
Assay: Development of nucleus-transferred oocytes after reprogramming and chemical activation
Format: cell-based, human
Details: then 2.0 mM 6-DMAP, reprogramming time 2 hour, G1.2 then SNUnt-2, 16 oocytes
Description: Since a sperm-mediated activation, which is one of the major factors for a normal embryonic development, was absent in case of the nucleus-transferred oocyte obtained in Example 2, an artificial stimulus was needed instead. In order to determine the optimum conditions for artificial embryogenesis, therefore, nucleus-transferred oocytes were reprogrammed, activated and in vitro cultured under various conditions as shown in Tables 2 to 4.
Such nucleus-transferred oocytes were washed several times with the G1.2 medium, transferred to the G1.2 medium containing 2.0 mM 6-DMAP (Sigma Co., St. Louis, Mo., U.S.A.) and, then, cultured at 37° C., 5% CO2, 5% O2 and 90% N2 for 4 hours. After these activation steps, the nucleus-transferred oocytes were in vitro cultured under the same condition.

C[C@H](CCC(=O)O)C[C@H](C)C[C@H](C)C(=O)/C=C(\O)[C@H](C)C[C@H](C)C/C=C/[C@@H](C)[C@@H](O)[C@@H](C)[C@@H](O)C[C@@H]1CC[C@@](C)([C@H]2CC[C@@](C)([C@@H](C)O)O2)O1 [ionomycin]
No. of nucleus-transferred oocytes developed to 2-cell stage (5 μM): 9 | No. of nucleus-transferred oocytes developed to blastocyst (5 μM): 0 | No. of nucleus-transferred oocytes developed to morula (5 μM): 0 | No. of nucleus-transferred oocytes developed to 2-cell stage (10 μM): 12 | No. of nucleus-transferred oocytes developed to blastocyst (10 μM): 0 | No. of nucleus-transferred oocytes developed to morula (10 μM): 0
